Test results: ChEMBL document CHEMBL5214949, “Synthesis and biological evaluation of (4-hydroxy-2-(substitued sulfonamido)pyrimidine-5-carbonyl)glycines as oral erythropoietin secretagogues” (Bioorg Med Chem Lett, 2022)
pEC50: −log10 of the molar value. Activity calls are given as the source filed them. The rule behind the calls is not given here.

Experiments:
[1] = Cytotoxicity against human Hep3B cells assessed as cell viability at 100 ug/ml measured by MTT assay; assay type: toxicity, cell-based, Hep 3B2; settings: at 100 µg/mL, read-out: Activity
[2] = Cytotoxicity against human Hep3B cells assessed as cell viability at 12.5 ug/ml measured by MTT assay; assay type: toxicity, cell-based, Hep 3B2; settings: at 12.5 µg/mL, read-out: Activity
[3] = tested on: Mus musculus; assay: In vivo inhibition of PHD2 in ICR mouse assessed as increase in serum EPO production at 10 mg/kg, po and measured after 4 hrs by ELISA; assay type: functional, organism-based
[4] = target: Egl nine homolog 1 (Homo sapiens, UniProt Q9GZT9); assay: Inhibition of PHD2 in human Hep3B cells assessed as increase in EPO production measured after 24 hrs by ELISA; assay type: cell-based
Egl nine homolog 1, sequence (Q9GZT9 whole entry): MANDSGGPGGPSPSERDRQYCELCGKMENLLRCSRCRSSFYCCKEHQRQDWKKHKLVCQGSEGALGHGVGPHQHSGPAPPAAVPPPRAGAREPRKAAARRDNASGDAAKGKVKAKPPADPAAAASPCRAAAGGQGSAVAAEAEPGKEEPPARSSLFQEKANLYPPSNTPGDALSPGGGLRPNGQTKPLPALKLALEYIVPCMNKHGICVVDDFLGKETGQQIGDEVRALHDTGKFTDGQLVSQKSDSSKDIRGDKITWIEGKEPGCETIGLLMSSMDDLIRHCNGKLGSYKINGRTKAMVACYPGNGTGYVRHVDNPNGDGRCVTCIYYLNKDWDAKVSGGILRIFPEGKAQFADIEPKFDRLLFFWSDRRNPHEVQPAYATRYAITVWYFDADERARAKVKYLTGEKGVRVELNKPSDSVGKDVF

SMILES | viability at 100 ug/ml [1] [%] | viability at 12.5 ug/ml [2] [%] | inhibition [3] | pEC50 [4]
COc1ccc(S(=O)(=O)Nc2ncc(C(=O)NCC(=O)O)c(O)n2)cc1 | 110 | 105 | Active | 
O=C(O)CNC(=O)c1cnc(NS(=O)(=O)c2ccc(Cl)cc2)nc1O | 93.4 | 85.5 |  | 
Cc1ccc(S(=O)(=O)Nc2ncc(C(=O)NCC(=O)O)c(O)n2)cc1 | 102 | 98.5 |  | 5.03
O=C(O)CNC(=O)c1cnc(NS(=O)(=O)c2ccccc2)nc1O |  |  | Active | 
O=C(O)CNC(=O)c1cnc(NS(=O)(=O)c2ccc(Cl)c(Cl)c2)nc1O | 90.9 | 89.5 |  | 
O=C(O)CNC(=O)c1cnc(NS(=O)(=O)c2ccc(-c3ccccc3)cc2)nc1O | 73.4 | 91.9 | Active | 
O=C(O)CNC(=O)c1cnc(NS(=O)(=O)Cc2ccccc2)nc1O | 87.5 | 90 | Active | 
O=C(O)CNC(=O)c1cnc(NS(=O)(=O)c2cccc(Cl)c2)nc1O | 84.4 | 95.7 | Active | 5.90
Cc1nc(C(=O)NCC(=O)O)c(O)c2ccc(Oc3ccccc3)cc12 [ROXADUSTAT] | 58.5 | 89.9 | Active | 
O=C(O)CNC(=O)c1cnc(NS(=O)(=O)c2ccc(C(F)(F)F)cc2)nc1O | 95.8 | 97.2 | Active | 
O=C(O)CNC(=O)c1cnc(NS(=O)(=O)c2ccc(Br)cc2)nc1O | 116 | 100 |  | 5.10
